The structures appear in SMILES notation. Active and inactive are the calls of the source. No cut-off for these calls is given here. A value given as a limit tells only on which side of the number the result lay.

Assay [1] deals with Escherichia coli. Put plainly: Inhibition of biofilm formation in Escherichia coli RP347 at 50 ug/ml by crystal violet staining based microtiter plate method. The assay is classed as functional, organism-based. Conditions: dose 50.0 µg/ml.
The test system of assay [2] is Pseudomonas aeruginosa. The assay can be described thus: Induction of biofilm formation in Pseudomonas aeruginosa PAO1 at 50 ug/ml by crystal violet staining based microtiter plate method relative to control. Conditions: dose 50.0 µg/ml. The assay is classed as functional.
Assay [3] has as its system Vibrio harveyi. The assay can be described thus: Inhibition of AI-2-mediated quorum sensing system in Vibrio harveyi BB170 assessed as reduction in AI-2 production at 10 ug/ml by bioluminescence method relative to control. Conditions: dose 10.0 µg/ml.
Assay [4] has as its system Escherichia coli. The assay can be described thus: Inhibition of biofilm formation in Escherichia coli RP347 at 50 ug/ml by crystal violet staining based microtiter plate method relative to control. Format: functional. Conditions: for inhibition at 50 µg/mL: Escherichia coli, RP347, dose 50 µg/ml.
The subject of assay [5] is Pseudomonas aeruginosa. Put plainly: Inhibition of biofilm formation in Pseudomonas aeruginosa PAO1 at 50 ug/ml by crystal violet staining based microtiter plate method relative to control. Format: functional.
The subject of assay [6] is Vibrio harveyi. The assay can be described thus: Inhibition of AHL-mediated quorum sensing system in Vibrio harveyi BB886 assessed as reduction in luminescence at 10 ug/ml by bioluminescence method relative to control. Conditions: dose 10.0 µg/ml.
Assay [7] is described as follows: Inhibition of Escherichia coli RP347 planktonic cell growth at 50 ug/ml by microplate reader analysis relative to control. The assay is classed as functional. Conditions: RP347, dose 50 µg/ml.

`COc1ccc(/C=C2\OC(=O)C(C(=O)c3cccc(Br)c3)=C2c2ccc(OC)c(Br)c2)cc1Br`: in assay [1], the inhibition entry is “Active”.

As for `COc1cccc(C2=C(C(=O)c3ccc(Br)cc3)C(=O)O/C2=C\c2ccc(OC)c(Br)c2)c1`, the inhibition entry in assay [1] is “Active”.

In the case of `COc1ccc(C2=C(C(=O)c3ccc(Br)cc3)C(=O)O/C2=C\c2ccc(C(F)(F)F)cc2)cc1Br`, the Activity in assay [2] is more than 75%.

On to `COc1ccc(/C=C2\OC(=O)C(C(=O)c3ccc(Br)cc3)=C2c2cccc(OC)c2)cc1`, for which the inhibition result in assay [1] is “Active”. For the same compound, in assay [2], the Activity was more than 75%. For the same compound, the inhibition in assay [3] was 76.1%.

In assay [4], `O=C1O/C(=C\c2ccc(Br)cc2)C(c2ccc(O)c(Br)c2)=C1C(=O)c1ccc(Br)cc1` registered an inhibition at 50 µg/mL of 100%. The “inhibition (INH)” value in assay [4] (dose 50 µg/ml) is given as 90%.

Turning to `COc1cc(C#CC(=O)c2ccc(Br)cc2)ccc1Br`, the inhibition at 50 µg/mL in assay [5] amounted to 29%; in assay [4], 75.1%. In addition, the inhibition in assay [6] came to 80%.

Turning to `COc1ccc(/C=C2\OC(=O)C(C(=O)c3ccc(Br)cc3)=C2c2ccc(OC)c(Br)c2)cc1`, in assay [6], the inhibition was found to be 78.1%. In assay [4], this compound gave an inhibition at 50 µg/mL of 100%.

Turning to `COc1ccc(C2=C(C(=O)c3ccc(Br)cc3)C(=O)O/C2=C\c2ccc(Br)cc2)cc1Br`, the inhibition entry in assay [1] is “Active”.

With `COc1ccc(C2=C(C(=O)c3cccc(Br)c3)C(=O)OC2)cc1Br`, in assay [1], the inhibition result was “Active”. The Activity in assay [2] was more than 80%. Also, the inhibition in assay [3] is more than 80%. Further, the inhibition at 50 µg/mL in assay [4] stood at 81.2%.

On to `COc1cccc(C2=C(C(=O)c3ccc(Br)cc3)C(=O)OC2)c1`, for which the inhibition result in assay [1] was “Active”. Also, the figures for the inhibition at 50 µg/mL in assay [5] and in assay [7] were 22.7% and 76.5%, respectively.

As for `COc1cccc(C2=C(C(=O)c3ccc(Br)cc3)C(=O)O/C2=C\c2ccc(Br)cc2)c1`, in assay [1], the inhibition result was “Active”.

As to `COc1ccc(C2=C(C(=O)c3ccc(Br)cc3)C(=O)OC2)cc1Br`, the inhibition at 50 µg/mL in assay [5] was 15.3%; in assay [4], 100%. The inhibition was 72.6% in assay [6] and more than 80% in assay [3].

Turning to `COc1cc(C#CC(=O)c2cccc(Br)c2)ccc1Br`, in assay [1], the inhibition result is “Active”. Also, in assay [3], the inhibition was determined as 100%.

In the case of `O=C1O/C(=C\c2ccc(O)c(Br)c2)C(c2ccc(O)c(Br)c2)=C1C(=O)c1ccc(Br)cc1`, testing at 50 µg/mL in assay [4] gave an inhibition of 100%.

Turning to `O=C1O/C(=C\c2ccc(O)c(Br)c2)C(c2ccc(O)c(Br)c2)=C1C(=O)c1ccc(O)cc1`, the inhibition at 50 µg/mL in assay [5] worked out at 10%; in assay [7] it was 33.4%. In addition, the inhibition came out at 88.7% in assay [6] and 99.6% in assay [3].

Consider `COc1ccc(C(=O)C2=C(c3ccc(OC)c(Br)c3)COC2=O)cc1`, for which the inhibition entry in assay [1] was “Active”. In assay [7], this compound returned an inhibition at 50 µg/mL of 87.4%.

`COc1ccc(C(=O)C2=C(c3ccc(OC)c(Br)c3)/C(=C/c3ccc(OC)c(Br)c3)OC2=O)cc1`: the inhibition entry in assay [1] was “Active”. In assay [3], the inhibition came to 74.9%.

As for `COc1cc(OC)c(/C=C2\OC(=O)C(C(=O)c3ccc(Br)cc3)=C2c2ccc(OC)c(Br)c2)c(OC)c1`, the inhibition at 50 µg/mL in assay [4] stood at 100%.

Take `O=C1O/C(=C\c2ccc(O)c(Br)c2)C(c2ccc(O)c(Br)c2)=C1C(=O)c1cccc(Br)c1`: the inhibition result in assay [1] was “Active”.

As to `COc1ccc(C#CC(=O)c2ccc(Br)cc2)cc1`, in assay [1], the inhibition entry was “Active”. Also, the inhibition at 50 µg/mL was found to be 29% in assay [5] and 82.6% in assay [7]. Moreover, the inhibition in assay [3] was determined as 100%.

With `COc1ccc(C(=O)C2=C(c3ccc(OC)c(Br)c3)/C(=C/c3ccc(Cl)cc3)OC2=O)cc1`, the inhibition entry in assay [1] was “Active”. The compound also returned an inhibition at 50 µg/mL in assay [5] of 10%.

`O=C1O/C(=C\c2ccc(O)cc2)C(c2ccc(O)c(Br)c2)=C1C(=O)c1ccc(Br)cc1`: the inhibition at 50 µg/mL was 100% in assay [4] and 61.9% in assay [7].

The compound `COc1ccc(C2=C(C(=O)c3cccc(Br)c3)C(=O)O/C2=C\c2ccc(Cl)cc2)cc1Br` returned an Activity in assay [2] of more than 75%. The compound further displayed an inhibition at 50 µg/mL in assay [4] of 100%.

`COc1ccc(C(=O)C#Cc2ccc(Br)c(OC)c2)cc1`: the inhibition result in assay [1] was “Active”. This compound also registered an Activity in assay [2] of more than 80%. The inhibition in assay [3] stood at 100%.

For `COc1ccc(/C=C2\OC(=O)C(C(=O)c3ccc(Br)cc3)=C2c2ccc(OC)c(Br)c2)cc1Br`, the inhibition entry in assay [1] is “Active”. For the same compound, in assay [6], the inhibition amounted to 76.1%. The compound also registered an Activity in assay [2] of more than 75%.

As usually defined, the inhibition is how much of the control response was suppressed.
